Test results taken from the Biogen ADME set (Fang et al. 2023).
≈ marks a conversion by molar mass, not a printed value.

Conditions: for aqueous solubility: pH 6.8

| MDR1-MDCK efflux ratio | intrinsic clearance, human liver microsomes [mL/min/kg] | intrinsic clearance, rat liver microsomes [mL/min/kg] | aqueous solubility [µg/mL] | fraction unbound, human plasma | fraction unbound, rat plasma | SMILES |
| --- | --- | --- | --- | --- | --- | --- |
| 4.62 | 110 | 160 | – | – | – | CC(C)(C)OC(=O)NCCCC(=O)N[C@H]1C[C@@H](n2cnc3c(NCc4ccccc4)ncnc32)[C@@H](O)[C@H]1O |
| 0.631 | 10.4 | 295 | 30.5 (≈ 131 µM) | – | – | O=C(CCCOc1ccccc1)N1CCCC1 |
| – | 15.9 | 46.6 | – | – | – | CC(C)(C)c1cc(C(=O)CSc2nncn2-c2ccccc2)cc(C(C)(C)C)c1O |
| 0.545 | 10.7 | 1070 | 14.7 (≈ 54.1 µM) | – | – | CC1(C)COCCN1Cc1cnn(-c2ccccc2)n1 |
| 0.805 | 29.4 | 552 | 44.5 (≈ 137 µM) | – | – | CO[C@H]1CC[C@@H](C(=O)c2ccc3nc4c(cc3c2)CCCO4)CC1 |
| 0.659 | ≤ 4.74 | ≤ 10.7 | 62.3 (≈ 217 µM) | – | – | O=C(NCC(=O)N1CCN(C2CC2)CC1)c1ccccc1 |
| 22.7 | 79.9 | 449 | 54.2 (≈ 182 µM) | – | – | Cc1nn(C)c(C)c1CCC(=O)N1CCCc2ncccc21 |
| 0.929 | ≤ 4.74 | 31 | – | – | – | Cc1nnc2ncc(-c3cccc(-c4ccnn4C)c3)cn12 |
| 0.865 | 131 | 290 | – | – | – | CCCc1cc(C(=O)Nc2ccc(-c3nnc(C)[nH]3)cc2)no1 |
| 16.9 | – | – | – | 0.00867 | 0.00796 | CC(C)[C@H](CO)Nc1nc(Nc2cc(N)cc(Cl)c2)c2ncn(C(C)C)c2n1 |
| 0.727 | ≤ 4.74 | 70.4 | – | – | – | Cc1ccc(-n2nc(NCc3cnn(C)c3)cc2C)cc1 |
| 0.924 | 20.3 | 498 | 46.5 (≈ 181 µM) | – | – | CN(CC(=O)NC1(C#N)CCCC1)c1ccccc1 |
| 0.516 | 14.9 | 90.4 | 9.2 (≈ 32.4 µM) | – | – | O=C(NC1CCCCCC1)c1ccc(-c2cnco2)cc1 |
| 0.524 | ≤ 4.74 | 299 | 42 (≈ 153 µM) | 0.246 | 0.305 | OCC1CCCCN1Cc1ccc(Cl)c(Cl)c1 (stereo not given) |
| 0.74 | 128 | 1080 | – | – | – | CC(C)N1CCN(CCCSc2ccccn2)CC1 |
| 6.39 | 26.8 | 1160 | – | – | – | COc1ccc(-c2nc(NC(C)C)ncc2-c2ncc[nH]2)cc1 |
| 0.497 | 191 | 2320 | 15.5 (≈ 50 µM) | – | – | COc1ccc(C)cc1NC(=O)CN1CCc2ccccc2C1 |
| 31 | 103 | 1070 | 91.2 (≈ 208 µM) | – | – | CNC(=O)c1sc2ncccc2c1[C@H]1CC[C@H](CNC(=O)COc2ccccc2)CC1 |
| 22.6 | ≤ 4.74 | 79.1 | 28.4 (≈ 104 µM) | – | – | Cc1cn[nH]c1C1(C)CCN(Cc2cnn(C)c2)CC1 |
| – | – | – | 52.5 (≈ 185 µM) | – | – | Cc1cc(C)cc(C(=O)NCCCNc2ncccn2)c1 |

| MDR1-MDCK efflux ratio | intrinsic clearance, human liver microsomes [mL/min/kg] | intrinsic clearance, rat liver microsomes [mL/min/kg] | aqueous solubility [µg/mL] | fraction unbound, human plasma | fraction unbound, rat plasma | SMILES |
| --- | --- | --- | --- | --- | --- | --- |
| – | – | – | 2.41 (≈ 7.51 µM) | – | – | CN(C)C(=O)Cc1nc(-c2cc3cc(Cl)ccc3o2)cs1 |
| 0.951 | ≤ 4.74 | 40.3 | 30.4 (≈ 125 µM) | – | – | c1cnc(-n2cccn2)c(CNC2CCCC2)c1 |
| 51.7 | 269 | 981 | – | – | – | CC(C)NC(=O)C1(Cc2ccccc2-c2ccncc2)CCOCC1 |
| 0.706 | 170 | 2160 | 11.9 (≈ 35.5 µM) | – | – | O=C(NC[C@@H]1CCN(c2ccccc2)C1)N1CCc2ccccc2C1 |
| 0.776 | 57.4 | 518 | 25.8 (≈ 81.4 µM) | – | – | CC(C)(C)c1nnnn1CC(=O)NC12CC3CC(CC(C3)C1)C2 |
| 11 | ≤ 4.74 | ≤ 10.7 | 3.55 (≈ 8.48 µM) | 0.0126 | 0.0186 | CCOc1cc2nn(CCC(C)(C)O)cc2cc1NC(=O)c1cccc(C(F)F)n1 |
| 1.27 | 11.9 | 146 | 5.17 (≈ 14.2 µM) | – | – | Cn1c(=O)c2c(nc3n2CCN3Cc2c(F)cccc2Cl)n(C)c1=O |
| 0.586 | 20 | 477 | 48.8 (≈ 155 µM) | – | – | CN1CCc2nc(NC(=O)c3ccc(Cl)s3)sc2C1 |
| 11.1 | 47.8 | 951 | 46.4 (≈ 141 µM) | – | – | CN(Cc1nnc(C2CC2)n1C)C(=O)C1C2CC3CC(C2)CC1C3 (stereo not given) |
| 0.447 | – | – | 0.37 (≈ 1.07 µM) | – | – | Cc1ccc(-c2ccc(NC(=O)c3ncoc3-c3ccccc3)cc2)o1 |
| – | 26.7 | 113 | – | – | – | Cc1cc(CO)nc(N2CCCCC2)n1 |
| 12.9 | ≤ 4.74 | 41.1 | – | – | – | COC(C)(C)CCNC(=O)CC1CC(C)(C)NC(C)(C)C1 |
| 0.641 | 115 | 398 | – | – | – | CCn1nccc1-c1cc(C)nc(N2CCCC2)n1 |
| 0.792 | ≤ 4.74 | 60.7 | 23.2 (≈ 99.6 µM) | – | – | CCc1nnnn1Cc1noc2c1CCCC2 |
| 0.742 | 13.3 | 247 | 40.8 (≈ 135 µM) | – | – | CC1(c2nnc(-c3ccc4c(c3)OCCO4)o2)CCOCC1 |
| – | ≤ 4.74 | 103 | – | – | – | COc1ccc(CN2CCC(c3cc[nH]n3)CC2)cn1 |
| 2.06 | 31.9 | 465 | 55.8 (≈ 149 µM) | – | – | COc1ccc(-c2ccc(CN(CCN(C)C)Cc3ccncc3)cc2)cc1 |
| – | 81.5 | 976 | 57.4 (≈ 165 µM) | – | – | COc1ccc(C2(NCc3cnn(-c4ccccc4)c3)CCCC2)cc1 |
| 0.675 | ≤ 4.74 | 16.2 | 40.8 (≈ 132 µM) | – | – | CC1CCN(Cc2ccc(NC(=O)c3ccccn3)cc2)CC1 |
| – | ≤ 4.74 | 21.3 | – | 0.974 | 0.912 | CC1(CNC(=O)c2cncc(C3CCNCC3)n2)CCCO1 (stereo not given) |

| MDR1-MDCK efflux ratio | intrinsic clearance, human liver microsomes [mL/min/kg] | intrinsic clearance, rat liver microsomes [mL/min/kg] | aqueous solubility [µg/mL] | fraction unbound, human plasma | fraction unbound, rat plasma | SMILES |
| --- | --- | --- | --- | --- | --- | --- |
| – | ≤ 4.74 | 53.7 | – | – | – | Cc1c(O)cccc1OCCN1CCOCC1 |
| – | – | – | 0.14 (≈ 0.481 µM) | – | – | COc1ccc(Nc2nc3ccccc3c3nncn23)cc1 |
| 0.775 | – | – | – | – | – | Cc1cc(C)n2ncc(C(=O)N[C@H]3CC[C@@H](C(C)C)CC3)c2n1 |
| 26.2 | 77.8 | 1260 | 42.3 (≈ 125 µM) | – | – | Cc1nc2ccccn2c1CC(=O)NCCCSc1ccccc1 |
| – | ≤ 4.74 | 192 | – | – | – | CCN(CC)Cc1cnc(NC(=O)c2ccccc2)s1 |
| – | – | – | 0.79 (≈ 2.15 µM) | – | – | O=C(O)c1c(O)c(Cc2ccc(Cl)cc2)nc2c3c(ccc12)CCCC3 |
| 1.12 | 18 | 285 | – | – | – | COC1(c2nc(Cc3ccccc3)no2)CCN(Cc2cnc(C)o2)CC1 |
| – | 36.1 | 970 | – | – | – | Cc1cc(N(C)CC(C)(C)O)ncc1Br |
| 0.525 | 43.6 | 412 | 44.7 (≈ 137 µM) | – | – | CCn1ncc(-c2cc(C(F)F)nc(NCCCOC)n2)c1C |
| 0.483 | 76.5 | 410 | 1.35 (≈ 4.15 µM) | – | – | CN(C)c1ccc(-c2ccc(COCc3cccs3)cc2)nn1 |
| 0.998 | ≤ 4.74 | 93.1 | 34.8 (≈ 116 µM) | – | – | CCNC(=O)c1ccc(-c2cc(C)cc(OC)c2OC)nc1 |
| 1.28 | 23.7 | 1130 | 36.4 (≈ 176 µM) | – | – | CCC(=O)N(C)c1ccccc1C(=O)O |
| – | ≤ 4.74 | 77.8 | – | – | – | CCOc1cc(N2CCc3nc[nH]c3C2)ncn1 |
| – | ≤ 4.74 | ≤ 10.7 | 18 (≈ 84.3 µM) | – | – | N#Cc1ccc(C(=O)Nn2cnnc2)cc1 |
| 4.9 | ≤ 4.74 | 21.1 | 25.2 (≈ 81.2 µM) | – | – | c1ccc(COc2ccc(CNCC3CCNCC3)cc2)cc1 |
| 0.712 | 50.2 | 397 | 40.5 (≈ 124 µM) | – | – | CCN(CC#N)C(=O)c1nn(-c2ccc(F)cc2)c2c1CCCC2 |
| – | 158 | 906 | 41.7 (≈ 148 µM) | – | – | O=C(NCCc1cccc2cccnc12)C1CCCCC1 |
| 0.664 | ≤ 4.74 | 99.9 | 39.9 (≈ 183 µM) | – | – | CNC(=O)Cn1ccc2cc(OC)ccc21 |

| SMILES | MDR1-MDCK efflux ratio | intrinsic clearance, human liver microsomes [mL/min/kg] | intrinsic clearance, rat liver microsomes [mL/min/kg] | aqueous solubility [µg/mL] | fraction unbound, human plasma | fraction unbound, rat plasma |
| --- | --- | --- | --- | --- | --- | --- |
| O[C@@H]1CCCC[C@H]1N1CCC(c2ccccc2)CC1 | 0.462 | ≤ 4.74 | 1390 | 46.5 (≈ 179 µM) | – | – |
